# Measured values reported in ChEMBL document CHEMBL4177587, “SIRT6 inhibitors with salicylate-like structure show immunosuppressive and chemosensitizing effects” (Bioorg Med Chem, 2017).
# Activity calls are given as the source filed them. The rule behind the calls is not given here.
# How the values were obtained:
# [1] = molecular target: T1, NAD-dependent protein deacylase sirtuin-6 (Homo sapiens, UniProt Q8N6T7); experiment: Inhibition of human recombinant SIRT6 assessed as reduction in NAD+-dependent deacetylase activity at 200 uM using Arg-His-Lys-Lys(epsilon-acetyl)-AMC substrate and NAD+ by fluorescence based assay
# [2] = molecular target: T2, NAD-dependent protein deacetylase sirtuin-2 (Homo sapiens, UniProt Q8IXJ6); experiment: Inhibition of human recombinant SIRT2 assessed as reduction in NAD+-dependent deacetylase activity using Arg-His-Lys-Lys(epsilon-acetyl)-AMC substrate and NAD+ by fluorescence based assay
# T2 sequence (Q8IXJ6 whole entry): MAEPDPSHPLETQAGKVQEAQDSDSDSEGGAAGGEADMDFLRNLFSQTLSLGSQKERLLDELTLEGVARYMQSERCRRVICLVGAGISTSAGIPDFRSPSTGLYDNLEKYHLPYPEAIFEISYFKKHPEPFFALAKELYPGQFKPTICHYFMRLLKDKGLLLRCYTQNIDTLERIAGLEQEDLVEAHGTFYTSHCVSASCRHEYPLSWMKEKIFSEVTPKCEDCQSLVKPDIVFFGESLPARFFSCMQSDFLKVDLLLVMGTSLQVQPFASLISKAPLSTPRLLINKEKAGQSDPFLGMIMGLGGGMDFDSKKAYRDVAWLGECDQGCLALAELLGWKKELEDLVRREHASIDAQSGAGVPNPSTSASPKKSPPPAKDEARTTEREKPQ
# [3] = Ionisation constant, pKa of the compound; assay type: physicochemical
# [4] = Cmax in ICR mouse at 5 mg/kg, ip by LC-MS/MS method; assay type: ADME, organism-based; set-up: dose 5 mg/kg, route intraperitoneal; conditions: in vivo
# [5] = molecular target: T1, NAD-dependent protein deacylase sirtuin-6; experiment: Competitive inhibition of human recombinant SIRT6 assessed as reduction in NAD+-dependent deacetylase activity at 50 uM using fixed Arg-His-Lys-Lys(epsilon-acetyl)-AMC substrate and varying NAD+ by fluorescence based assay based double-reciprocal plot
# [6] = AUC (0 to t) in ICR mouse at 5 mg/kg, ip by LC-MS/MS method; assay type: ADME, organism-based; conditions: in vivo
# [7] = Fraction unbound in human plasma at 1 ug/ml by rapid equilibrium dialysis; assay type: ADME, cell-free
# [8] = molecular target: T1, NAD-dependent protein deacylase sirtuin-6; experiment: Inhibition of SIRT6 in human BxPC3 cells assessed as increase in 2-NBDG uptake at 100 uM incubated for 18 hrs by glucose uptake assay; assay type: cell-based
# [9] = Fraction unbound in mouse plasma at 1 ug/ml by rapid equilibrium dialysis; assay type: ADME, cell-free
# [10] = Fraction unbound in mouse plasma at 10 ug/ml by rapid equilibrium dialysis; assay type: ADME, cell-free
# [11] = Tmax in ICR mouse at 5 mg/kg, ip by LC-MS/MS method; assay type: ADME, organism-based; conditions: in vivo
# [12] = Terminal half life in ICR mouse at 5 mg/kg, ip by LC-MS/MS method; assay type: ADME, organism-based; conditions: in vivo, read-out: beta t1/2 (converted)
# BXPC-3 = experiment: Toxicity in human BxPC3 cells assessed as reduction in cell viability at 30 uM incubated for 72 hrs by Cell-titer96 aqueous one assay; assay type: cell-based; conditions: bxpc-3, 72 h
# [13] = Intrinsic aqueous solubility in 23% Captisol; assay type: physicochemical
# [14] = molecular target: T3, NAD-dependent protein deacetylase sirtuin-1 (Homo sapiens, UniProt Q96EB6); experiment: Inhibition of human recombinant SIRT1 assessed as reduction in NAD+-dependent deacetylase activity using Arg-His-Lys-Lys(epsilon-acetyl)-AMC substrate and NAD+ by fluorescence based assay
# T3 sequence (Q96EB6 whole entry): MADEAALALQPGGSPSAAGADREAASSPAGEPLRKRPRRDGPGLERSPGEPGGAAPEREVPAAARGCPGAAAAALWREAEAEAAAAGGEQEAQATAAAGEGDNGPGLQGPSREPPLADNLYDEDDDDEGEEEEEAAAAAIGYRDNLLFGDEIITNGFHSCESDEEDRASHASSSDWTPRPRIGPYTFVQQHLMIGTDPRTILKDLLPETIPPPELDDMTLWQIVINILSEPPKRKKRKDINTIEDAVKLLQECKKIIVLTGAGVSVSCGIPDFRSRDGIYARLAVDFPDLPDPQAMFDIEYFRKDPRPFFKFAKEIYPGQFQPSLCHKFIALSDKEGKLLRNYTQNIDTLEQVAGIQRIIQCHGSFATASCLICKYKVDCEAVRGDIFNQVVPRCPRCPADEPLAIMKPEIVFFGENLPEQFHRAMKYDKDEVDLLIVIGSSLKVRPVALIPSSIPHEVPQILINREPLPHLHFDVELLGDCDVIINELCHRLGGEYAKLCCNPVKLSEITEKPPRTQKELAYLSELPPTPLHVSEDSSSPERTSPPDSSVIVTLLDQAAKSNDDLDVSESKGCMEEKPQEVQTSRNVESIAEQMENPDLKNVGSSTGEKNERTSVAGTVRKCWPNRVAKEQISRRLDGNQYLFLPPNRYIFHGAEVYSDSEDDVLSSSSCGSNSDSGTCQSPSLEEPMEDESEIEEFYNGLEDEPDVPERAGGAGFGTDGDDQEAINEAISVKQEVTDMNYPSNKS
# [15] = Intrinsic aqueous solubility in surfactant in 9% Tween 80; assay type: physicochemical; conditions: 9% Tween 80 surfactant solution
# [16] = molecular target: T1, NAD-dependent protein deacylase sirtuin-6; experiment: Competitive inhibition of human recombinant SIRT6 assessed as reduction in NAD+-dependent deacetylase activity at 50 uM using varying Arg-His-Lys-Lys(epsilon-acetyl)-AMC substrate and fixed NAD+ by fluorescence based assay based double-reciprocal plot
# [17] = Intrinsic aqueous solubility in 1.96% Soluplus solution; assay type: physicochemical
# [18] = Partition coefficient, log P of the compound; assay type: physicochemical; conditions: octanol/water
# [19] = molecular target: T1, NAD-dependent protein deacylase sirtuin-6; experiment: Inhibition of SIRT6 in human BxPC3 cells assessed as increase in H3K9 acetylation by immunoblotting relative to untreated control; assay type: cell-based; set-up: concentration or dose not given beside the values
# [20] = molecular target: T1, NAD-dependent protein deacylase sirtuin-6; experiment: Inhibition of SIRT6 in human BxPC3 cells assessed as potentiation of gemcitabine-induced cytotoxicity at 30 uM incubated for 72 hrs by Cell-titer96 aqueous one assay; assay type: cell-based
# [21] = AUC (0 to infinity) in ICR mouse at 5 mg/kg, ip by LC-MS/MS method; assay type: ADME, organism-based; set-up: dose 5 mg/kg, route intraperitoneal, time infinity; conditions: in vivo
# Mus musculus = experiment: Toxicity in ICR mouse assessed as induction of abnormalities at 5 mg/kg, ip; assay type: organism-based; conditions: in vivo
# [22] = molecular target: T1, NAD-dependent protein deacylase sirtuin-6; experiment: Inhibition of SIRT6 in human BxPC3 cells assessed as reduction in TNFalpha production at 100 uM incubated for 18 hrs by ELISA method; assay type: cell-based
# [23] = Fraction unbound in human plasma at 10 ug/ml by rapid equilibrium dialysis; assay type: ADME, cell-free
# [24] = Intrinsic aqueous solubility in PBS at pH 7.4; assay type: physicochemical
# [25] = MRT (0 to infinity) in ICR mouse at 5 mg/kg, ip by LC-MS/MS method; assay type: ADME, organism-based; conditions: in vivo
# [26] = Stability in mouse plasma assessed as half life at 1 uM at 37 degC measured after 4 hrs; assay type: ADME, cell-free; conditions: 4 h, 1 µM
# T1 sequence (Q8N6T7 whole entry): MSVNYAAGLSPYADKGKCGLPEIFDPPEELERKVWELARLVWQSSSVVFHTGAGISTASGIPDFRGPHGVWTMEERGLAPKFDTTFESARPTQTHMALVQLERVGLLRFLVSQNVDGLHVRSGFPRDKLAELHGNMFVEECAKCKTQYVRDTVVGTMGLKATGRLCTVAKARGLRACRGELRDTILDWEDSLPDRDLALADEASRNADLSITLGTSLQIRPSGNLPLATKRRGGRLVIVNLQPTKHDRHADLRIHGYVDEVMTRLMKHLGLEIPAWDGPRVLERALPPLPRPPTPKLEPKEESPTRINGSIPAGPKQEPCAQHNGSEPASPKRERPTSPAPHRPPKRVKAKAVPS
compound,measurement,setting,value
O=C(Nc1ccc(O)c(C(=O)O)c1)c1ccc(NC(=O)c2ccco2)cc1,inhibition,[1],100%
same,IC50,[2],453 µM
same,pKa,[3],2.58
same,Cmax,[4],3890 ng/mL
same,inhibition,[5],Active
same,AUC(0-t),[6],2830 ng·h/mL
same,fraction unbound at 1 ug/ml,[7],0.019
same,fold change (FC),[8],1.4
same,fraction unbound at 1 ug/ml,[9],0.029
same,fraction unbound at 10 ug/ml,[10],0.046
same,Tmax,[11],10.2 min
same,half-life,[12],91.8 min
same,Activity,BXPC-3,Non-Toxic
same,solubility,[13],650 µg/mL
same,IC50,[14],783 µM
same,solubility,[15],1700 µg/mL
same,inhibition,[16],Active
same,solubility,[17],760 µg/mL
same,logP,[18],2.6
same,fold change (FC),[19],1.9
same,inhibition,[20],Active
same,AUC(0-inf),[21],2840 ng·h/mL
same,Activity,Mus musculus,Non-Toxic
same,inhibition,[22],78%
same,fraction unbound at 10 ug/ml,[23],0.024
same,solubility,[24],1400 µg/mL
same,MRT inf,[25],48.6 min
same,t1/2,[26],Stable
